According to patent US7884070B2, “Linear cationic peptides having antibacterial and/or antifungal properties” (priority 2002, dated 2011):
Values after ≈ are worked out from the molar mass of the structure shown. Like-named read-outs stand apart in the source and are kept apart here. Where a SMILES comes first, the peptide text is derived from it.

Key:
[1] = test system: Bacillus cereus ATCC 11778; type: cell-based
[2] = test system: Neisseria sica ATCC 9913; type: cell-based
[3] = test system: Staphylococcus aureus ATCC 14154; type: cell-based
[4] = test system: Bacillus subtilis ATCC 6633; type: cell-based
[5] = test system: Pseudomonas aeruginosa ATCC 27853; type: cell-based
[6] = test system: Citrobacter freundii ATCC 8090; type: cell-based
[7] = test system: Escherichia coli ATCC 25922; type: cell-based
[8] = test system: Staphylococcus aureus ATCC 25923; type: cell-based
[9] = test system: Serratia marcescens ATCC 8100; type: cell-based
[10] = test system: Streptococcus pneumoniae ATCC 49619; type: cell-based
[11] = test system: Listeria monocytogenes ATCC 19115; type: cell-based
[12] = test system: Klebsiella pneumoniae ATCC 13883; type: cell-based
[13] = test system: C. neoformans Cn52D; type: cell-based, Cryptococcus neoformans
Method: D. Determination of the miminimal inhibitory concentration (MIC) in liquid medium for the Filamentous Fungi and Yeast
Peptide concentrations tested: from 0.2 μg/ml to 100 μg/ml.

[14] = test system: Shigella flexneri ATCC 112022
[15] = test system: Streptococcus pyogenes ATCC 19615; type: cell-based
[16] = test system: Proteus vulgaris ATCC 13315; type: cell-based
[17] = test system: Salmonella typhimurium ATCC 14028; type: cell-based
[18] = test system: Enterococcus faecium ATCC 35667; type: cell-based
[19] = test system: Micrococcus luteus ATCC 9341; type: cell-based
[20] = test system: Enterobacter aerogenes ATCC 13048; type: cell-based
[21] = test system: Shigella sonnei ATCC 25931
Method: The MIC values were determined by the method of microdilution in liquid medium (NCCLS M7A5) for all of the bacterial species on 96-well polystyrene plates.
The culture medium was Mueller-Hinton broth (MHB) (pH≈7.2-7.4) with supplements according to the bacterial species studied: • MHB alone for the non-exigent species, • MHB+3% lysed horse blood for the streptococci, Listeria and Neisseria, • MHB+hemin 15 mg/l+NAD 15 mg/l+yeast extract 5 g/l for Haemophilus.
The bacterial inoculum was prepared from re-isolation performed on: • CLED agar: non-exigent strains, • blood agar+5% goat blood: streptococci, Listeria and Neisseria • chocolate agar+5% goat blood: Haemophilus, Neisseria.
The final inoculum was at ≈5·10^5 cfu/ml (colony forming units). 50 μl of bacterial inoculum was distributed per well containing an equal volume of the peptide solution diluted by half in the appropriate culture medium depending on the bacterial species (0.5 to 512 μg/ml). The cultures were incubated at 35° C. in ambient air for 16 to 20 hours (20 to 24 h for the streptococci).
Determination of the MBC values was performed after inhibition and reading of the MIC plates:
A volume of 3 μl of each concentration of antibiotic was deposited on the agar media: • MH: for the non-exigent strains, • MH+5% sheep blood: for the streptococci, Listeria, Bacillus and Neisseria, • HTM: for the Haemophilus.
The agars were incubated for 18 h at 35° C. in atmosphere: • in ambient air: for the non-exigent strains, • with 5-6% of CO2: for the streptococci, Listeria, Haemophilus and Neisseria.
The MBC is the lowest concentration of antibiotic that inhibits all bacterial growth on the transplant agar (<0. 1% of survivors).

[22] = test system: Enterococcus faecalis ATCC 29212; type: cell-based
[23] = test system: Escherichia coli ATCC 35218; type: cell-based
[24] = test system: Streptococcus pneumoniae ATCC 6303; type: cell-based
[25] = test system: Acinetobacter baumanii ATCC 19606; type: cell-based
[26] = test system: Staphylococcus epidermidis ATCC 12228; type: cell-based
[27] = In vivo toxicity: maximal tolerated dose (MTD); conditions: mouse, female OFI mice, intravenous perfusion approx. 15 minutes, 28 days after an injection
Method: The maximal tolerated dose (MTD) for each peptide was determined on female OFI mice at 28 days after an injection. The MTD was defined as the maximal nonlethal dose that could be injected. The peptides were administered by the intravenous route as a perfusion of approximately 15 minutes duration. The injection volume was 10 μl/g, the perfusion rate was 1.2 ml/hour and the excipient was a solution of NaCl at 0.8%.

[28] = test system: Haemophilus influenzae ATCC 49247; type: cell-based
[29] = test system: Enterococcus faecalis ATCC 19433; type: cell-based
[30] = test system: Enterobacter cloacae ATCC 23355; type: cell-based
[31] = test system: Streptococcus agalactiae ATCC 13813; type: cell-based
[32] = test system: human erythrocytes; assay: Hemolytic activity on human erythrocytes; conditions: 30 minutes, 0 to 500 μg/ml, absorbance 414 nm
Method: 1·10^6 human erythrocytes were incubated for 30 minutes with increasing concentrations of peptides (from 0 to 500 μg/ml) in a final volume of 150 μl. The hemolytic activity was evaluated by measurement of the absorbance (Abs) at the wave length 414 nm (Absorbance of hemoglobin) of the cellular supernatants. The absorbance of the supernatant after incubation of the erythrocytes in water corresponds to 100% (Abs100) of hemolysis and the absorbance of the supernatant after incubation of the erythrocytes in PBS corresponds to 0% of hemolysis (Abs0). The hemolytic activity of the peptides expressed in percentage corresponds to (Abspeptide−Abs0)/Abs100×100.

[33] = test system: bacteria; assay: In vitro antibacterial properties under standard evaluation conditions (incubation of 18 hours); type: cell-based; conditions: concentrations described in the literature
From the text: In contrast, I unexpectedly discovered that KLAKLAK (SEQ ID NO: 11) is capable of conferring antibacterial and/or antifungal properties on peptides comprising this motif and a peptide sequence not having antibacterial and/or antifungal properties.

[34] = test system: three strains of bacteria (E. coli, P. aeruginosa and S. aureus); conditions: incubation period of 4 hours; cited from earlier work
[35] = Javadpour et al. 1996; cited from earlier work

**Q.** What does the source list for `CC(C)C[C@H](NC(=O)CNC(=O)[C@H](CCCNC(=N)N)NC(=O)[C@H](CCCCN)NC(=O)[C@@H](N)C(C)C)C(=O)N[C@@H](CCCCN)C(=O)N[C@@H](CC(C)C)C(=O)N[C@@H](CCCCN)C(=O)N[C@@H](CC(C)C)C(=O)N[C@@H](C)C(=O)N[C@@H](CCCCN)C(=O)N[C@@H](CC(C)C)C(=O)N[C@@H](C)C(=O)N[C@@H](CCCCN)C(=O)N[C@@H](CCCCN)C(=O)N[C@@H](CC(C)C)C(=O)N[C@@H](C)C(=O)N[C@@H](CCCCN)C(=O)N[C@@H](CC(C)C)C(=O)N[C@@H](C)C(=O)N[C@@H](CCCCN)C(=O)O` [Peptide 1] (H-VKRGLKLKLAKLAKKLAKLAK-OH; N-terminus and C-terminus assumed)?
**A.** MBC [1]: 128 µg/mL (≈ 55.2 µM); MIC [1]: 128 µg/mL (≈ 55.2 µM); MBC [2]: 128 µg/mL (≈ 55.2 µM); MIC [2]: 4 µg/mL (≈ 1.72 µM); MBC [3]: 128 µg/mL (≈ 55.2 µM); MIC [3]: 64 µg/mL (≈ 27.6 µM); MBC [4]: 8 µg/mL (≈ 3.45 µM); MIC [4]: 8 µg/mL (≈ 3.45 µM); MBC [5]: >512 µg/mL; MIC [5]: 512 µg/mL (≈ 221 µM); MBC [6]: 16 µg/mL (≈ 6.9 µM); MIC [6]: 16 µg/mL (≈ 6.9 µM); MBC [7]: 16 µg/mL (≈ 6.9 µM); MIC [7]: 16 µg/mL (≈ 6.9 µM); MBC [8]: 64 µg/mL (≈ 27.6 µM); MIC [8]: 64 µg/mL (≈ 27.6 µM); MBC [9]: >512 µg/mL; MIC [9]: >512 µg/mL; MBC [10]: 256 µg/mL (≈ 110 µM); MIC [10]: 128 µg/mL (≈ 55.2 µM); MBC [11]: 128 µg/mL (≈ 55.2 µM); MIC [11]: 128 µg/mL (≈ 55.2 µM); MBC [12]: >512 µg/mL; MIC [12]: >512 µg/mL; MIC [13]: 12.5 µg/mL (≈ 5.39 µM); MBC [14]: 32 µg/mL (≈ 13.8 µM); MIC [14]: 16 µg/mL (≈ 6.9 µM); MBC [15]: 64 µg/mL (≈ 27.6 µM); MIC [15]: 64 µg/mL (≈ 27.6 µM); MBC [16]: 256 µg/mL (≈ 110 µM); MIC [16]: 128 µg/mL (≈ 55.2 µM); MBC [17]: 8 µg/mL (≈ 3.45 µM); MIC [17]: 8 µg/mL (≈ 3.45 µM); MBC [18]: >512 µg/mL; MIC [18]: 128 µg/mL (≈ 55.2 µM); MBC [19]: 4 µg/mL (≈ 1.72 µM); MIC [19]: 4 µg/mL (≈ 1.72 µM); MBC [20]: 256 µg/mL (≈ 110 µM); MIC [20]: 256 µg/mL (≈ 110 µM); MBC [21]: 4 µg/mL (≈ 1.72 µM); MIC [21]: 4 µg/mL (≈ 1.72 µM); MBC [22]: >512 µg/mL; MIC [22]: >512 µg/mL; MBC [23]: 8 µg/mL (≈ 3.45 µM); MIC [23]: 8 µg/mL (≈ 3.45 µM); MBC [24]: 64 µg/mL (≈ 27.6 µM); MIC [24]: 64 µg/mL (≈ 27.6 µM); MBC [25]: 16 µg/mL (≈ 6.9 µM); MIC [25]: 8 µg/mL (≈ 3.45 µM); MBC [26]: 4 µg/mL (≈ 1.72 µM); MIC [26]: 4 µg/mL (≈ 1.72 µM); MTD at 28 days [27]: > 23.2 mg/kg; MBC [28]: 64 µg/mL (≈ 27.6 µM); MIC [28]: 64 µg/mL (≈ 27.6 µM); MBC [29]: >512 µg/mL; MIC [29]: >512 µg/mL; MBC [30]: 16 µg/mL (≈ 6.9 µM); MIC [30]: 16 µg/mL (≈ 6.9 µM); MBC [31]: 128 µg/mL (≈ 55.2 µM); MIC [31]: 128 µg/mL (≈ 55.2 µM)

**Q.** Which results are given for `CC(C)C[C@H](NC(=O)[C@H](CCCCN)NC(=O)CNC(=O)[C@H](CCCCN)NC(=O)[C@H](CCCCN)NC(=O)[C@H](CCCCN)NC(=O)[C@H](CCCNC(=N)N)NC(=O)[C@H](CCCCN)NC(=O)CNC(=O)[C@H](CCCCN)NC(=O)[C@H](C)NC(=O)[C@H](CC(C)C)NC(=O)[C@H](CCCCN)NC(=O)[C@H](C)NC(=O)[C@H](CC(C)C)NC(=O)[C@H](CCCCN)NC(=O)[C@H](CCCCN)NC(=O)[C@H](C)NC(=O)[C@H](CC(C)C)NC(=O)[C@H](CCCCN)NC(=O)[C@H](C)NC(=O)[C@H](CC(C)C)NC(=O)[C@@H](N)CCCCN)C(=O)NCC(=O)N[C@@H](CCCCN)C(=O)N[C@@H](CCCCN)C(=O)N[C@@H](CCCNC(=N)N)C(=O)N[C@@H](CC(=O)O)C(=O)N1CCC[C@H]1C(=O)O` [Peptide 3] (H-KLAKLAKKLAKLAKGKRKKKGKLGKKRDP-OH; N-terminus and C-terminus assumed)?
**A.** hemolytic activity [32]: did not exhibit hemolytic activity; MIC [5]: 64 µg/mL (≈ 19.8 µM); MIC [8]: 64 µg/mL (≈ 19.8 µM); MIC ([13]; tested 0.2 to 100 μg/ml): 1.56 µg/mL (≈ 0.483 µM); MIC [22]: 64 µg/mL (≈ 19.8 µM); MIC [23]: 64 µg/mL (≈ 19.8 µM); MIC [24]: >500 µg/mL

**Q.** For “KLAKLAKKLAKLAK [14-mer linear peptide, literature 14-mer linear peptide (Javadpour et al. 1996)]”, which antibacterial activity [33] is on record?
**A.** The antibacterial activity was “did not reveal any biological activity”.

**Q.** And the antibacterial activity [34]?
**A.** Its antibacterial activity is “showed activity”.

**Q.** And the hemolysis [35]?
**A.** Its hemolysis is “nonhemolytic”.
